Results reported in ChEMBL document CHEMBL6083234, “Discovery of novel 1,4-dicarbonylthiosemicarbazides as DNA gyrase inhibitors for the treatment of MRSA infection” (Eur J Med Chem, 2024).
Values after ≈ are worked out from the molar mass of the structure shown.

How the values were obtained:
Topoisomerase IV = Topoisomerase IV (Staphylococcus aureus, UniProt P0C1S7+P0C1U9); experiment: Inhibition of Staphylococcus aureus DNA topoisomerase 4 decatenation activity incubated for 1 hrs by ethidium bromide staining based analysis; type: protein-complex assay
Staphylococcus aureus [1] = experiment: Antibacterial activity against Staphylococcus aureus ATCC 25923 incubated for 24 hrs by CLSI protocol based broth microdilution method; type: functional
DNA gyrase [2] = target: T1, DNA gyrase (Staphylococcus aureus, UniProt P0A0K8+P20831); experiment: Inhibition of Staphylococcus aureus DNA gyrase supercoiling using supercoiled pBR322 DNA as substrate incubated for 60 mins by ethidium bromide staining based analysis; type: protein-complex assay
Staphylococcus aureus [3] = experiment: Antibacterial activity against methicillin-resistant Staphylococcus aureus incubated for 24 hrs by CLSI protocol based broth microdilution method; type: functional
Staphylococcus aureus [4] = experiment: Antibacterial activity against Staphylococcus aureus ATCC 29213 assessed as inhibition of bacterial growth incubated for 18 to 24 hrs by broth microdilution method; type: functional; conditions: time 18-24 hrs
Staphylococcus aureus [5] = experiment: Antibacterial activity against methicillin-resistant Staphylococcus aureus incubated for 18 hrs by CLSI protocol based broth microdilution method; type: functional
[6] = target: T2, Ribonuclease P protein component (Staphylococcus aureus, UniProt P0A0H5); experiment: Inhibition of Staphylococcus aureus RnpA-mediated RNA degradation incubated for 20 mins by fluorescence-based high through-put assay
T2 sequence (P0A0H5 whole entry): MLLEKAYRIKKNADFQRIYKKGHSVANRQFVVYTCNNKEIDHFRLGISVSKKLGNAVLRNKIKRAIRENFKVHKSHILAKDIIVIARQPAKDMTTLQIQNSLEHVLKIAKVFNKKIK

[7] = Cytotoxicity against HUVEC cells assessed as reduction in cell viability incubated for 48 hrs by CCK8 assay; type: toxicity, cell-based; conditions: human
[8] = Cytotoxicity against human HepG2 cells assessed as reduction in cell viability incubated for 48 hrs by CCK8 assay; type: toxicity, cell-based
DNA gyrase [9] = target: T1, DNA gyrase; experiment: Inhibition of Staphylococcus aureus DNA gyrase ATP hydrolysis activity using pBR322 DNA as substrate incubated for 30 mins in presence of ATP by ADP-Glo reagent based assay; type: protein-complex assay
[10] = Selectivity index, ratio of CC50 for cytotoxicity against human HepG2 cells to MIC for antibacterial activity against Staphylococcus aureus ATCC 29213; type: toxicity, cell-based; conditions: read-out: Selectivity Index
[11] = Selectivity index, ratio of CC50 for cytotoxicity against HUVEC cells to MIC for antibacterial activity against Staphylococcus aureus ATCC 29213; type: toxicity, cell-based; conditions: human, read-out: Selectivity Index

T1 sequence (P0A0K8 whole entry): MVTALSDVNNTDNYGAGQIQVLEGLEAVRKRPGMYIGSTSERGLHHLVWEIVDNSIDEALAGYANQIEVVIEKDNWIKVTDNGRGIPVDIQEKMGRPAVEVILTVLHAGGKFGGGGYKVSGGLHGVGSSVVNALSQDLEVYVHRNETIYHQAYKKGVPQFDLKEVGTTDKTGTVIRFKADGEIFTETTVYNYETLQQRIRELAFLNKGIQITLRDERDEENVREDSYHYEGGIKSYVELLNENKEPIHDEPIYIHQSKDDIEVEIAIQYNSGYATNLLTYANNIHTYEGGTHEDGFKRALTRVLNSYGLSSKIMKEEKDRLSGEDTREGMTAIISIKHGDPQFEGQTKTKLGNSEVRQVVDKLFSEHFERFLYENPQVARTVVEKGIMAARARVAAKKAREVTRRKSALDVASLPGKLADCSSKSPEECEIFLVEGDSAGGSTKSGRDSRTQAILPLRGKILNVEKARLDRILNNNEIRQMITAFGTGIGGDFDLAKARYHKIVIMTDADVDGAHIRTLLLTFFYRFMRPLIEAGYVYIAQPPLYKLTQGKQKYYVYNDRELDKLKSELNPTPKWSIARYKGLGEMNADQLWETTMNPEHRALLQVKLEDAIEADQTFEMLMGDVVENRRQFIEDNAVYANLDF
T1 sequence (P20831 whole entry): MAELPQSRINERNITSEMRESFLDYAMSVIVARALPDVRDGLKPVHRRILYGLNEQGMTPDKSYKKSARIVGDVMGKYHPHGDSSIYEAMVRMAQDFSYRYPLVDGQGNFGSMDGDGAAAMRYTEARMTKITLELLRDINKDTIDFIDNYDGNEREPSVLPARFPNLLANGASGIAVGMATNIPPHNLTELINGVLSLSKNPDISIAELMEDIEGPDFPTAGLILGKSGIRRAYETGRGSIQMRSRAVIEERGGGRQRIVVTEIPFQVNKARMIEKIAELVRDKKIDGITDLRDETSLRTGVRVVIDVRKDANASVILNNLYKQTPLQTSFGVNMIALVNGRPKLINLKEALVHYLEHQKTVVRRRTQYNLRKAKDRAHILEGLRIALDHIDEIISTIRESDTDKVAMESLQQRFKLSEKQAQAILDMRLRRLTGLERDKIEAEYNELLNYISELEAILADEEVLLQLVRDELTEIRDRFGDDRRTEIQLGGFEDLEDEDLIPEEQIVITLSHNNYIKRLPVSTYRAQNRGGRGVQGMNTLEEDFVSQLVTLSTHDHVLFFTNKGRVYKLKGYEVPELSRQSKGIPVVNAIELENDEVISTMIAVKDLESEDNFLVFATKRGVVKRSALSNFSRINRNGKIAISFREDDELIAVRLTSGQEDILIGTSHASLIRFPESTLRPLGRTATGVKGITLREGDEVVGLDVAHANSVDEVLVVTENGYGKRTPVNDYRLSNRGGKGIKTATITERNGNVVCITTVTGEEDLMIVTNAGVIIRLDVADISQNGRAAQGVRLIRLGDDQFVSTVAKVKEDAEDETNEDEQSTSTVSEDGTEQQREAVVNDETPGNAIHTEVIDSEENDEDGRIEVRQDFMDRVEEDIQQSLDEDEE
Topoisomerase IV, sequence (P0C1U9 whole entry): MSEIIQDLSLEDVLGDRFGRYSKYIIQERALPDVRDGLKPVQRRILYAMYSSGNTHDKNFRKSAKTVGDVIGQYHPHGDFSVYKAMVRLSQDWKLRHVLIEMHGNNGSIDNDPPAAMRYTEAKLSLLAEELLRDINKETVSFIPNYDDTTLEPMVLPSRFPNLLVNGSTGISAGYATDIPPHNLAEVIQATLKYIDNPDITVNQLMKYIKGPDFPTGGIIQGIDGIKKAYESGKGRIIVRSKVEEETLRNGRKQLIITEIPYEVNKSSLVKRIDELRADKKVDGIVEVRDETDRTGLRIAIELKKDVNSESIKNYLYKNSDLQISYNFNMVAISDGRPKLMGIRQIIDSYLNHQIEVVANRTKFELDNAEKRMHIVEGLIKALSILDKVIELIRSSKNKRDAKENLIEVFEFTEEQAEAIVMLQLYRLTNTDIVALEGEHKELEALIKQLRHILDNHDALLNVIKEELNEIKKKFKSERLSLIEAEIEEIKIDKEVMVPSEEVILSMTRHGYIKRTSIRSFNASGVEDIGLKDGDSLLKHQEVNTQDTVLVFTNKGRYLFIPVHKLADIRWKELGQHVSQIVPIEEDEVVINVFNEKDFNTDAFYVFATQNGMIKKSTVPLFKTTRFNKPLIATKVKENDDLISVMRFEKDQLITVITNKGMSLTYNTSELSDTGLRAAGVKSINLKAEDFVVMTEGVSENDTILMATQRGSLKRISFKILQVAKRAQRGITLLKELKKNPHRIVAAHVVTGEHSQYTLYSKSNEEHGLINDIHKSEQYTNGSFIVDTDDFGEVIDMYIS
Topoisomerase IV, sequence (P0C1S7 whole entry): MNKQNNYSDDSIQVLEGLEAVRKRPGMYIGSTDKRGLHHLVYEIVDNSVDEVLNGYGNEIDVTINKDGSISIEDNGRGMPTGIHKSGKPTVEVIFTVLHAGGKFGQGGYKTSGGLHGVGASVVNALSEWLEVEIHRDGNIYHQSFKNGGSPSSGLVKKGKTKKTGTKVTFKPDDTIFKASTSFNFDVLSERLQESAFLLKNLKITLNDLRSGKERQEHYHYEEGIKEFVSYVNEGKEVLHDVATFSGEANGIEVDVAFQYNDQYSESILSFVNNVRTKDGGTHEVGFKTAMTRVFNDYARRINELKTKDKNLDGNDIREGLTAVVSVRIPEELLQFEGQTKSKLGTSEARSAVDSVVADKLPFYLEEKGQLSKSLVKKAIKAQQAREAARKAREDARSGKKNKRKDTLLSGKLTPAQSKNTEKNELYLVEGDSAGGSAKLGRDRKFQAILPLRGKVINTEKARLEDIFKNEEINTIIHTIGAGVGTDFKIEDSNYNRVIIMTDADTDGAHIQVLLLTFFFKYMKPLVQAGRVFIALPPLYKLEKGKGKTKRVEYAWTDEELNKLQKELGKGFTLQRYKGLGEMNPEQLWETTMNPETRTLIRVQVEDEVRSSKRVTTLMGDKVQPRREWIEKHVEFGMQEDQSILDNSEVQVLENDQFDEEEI

O=C(NC(=S)NNC(=O)c1cccc(Cl)c1Cl)c1ccc([N+](=O)[O-])cc1
IC50 (Topoisomerase IV): > 100000 nM | MIC (Staphylococcus aureus [1]): 1.95 µg/mL (≈ 4.72 µM) | IC50 (DNA gyrase [2]): > 100000 nM | MIC (Staphylococcus aureus [3]): > 62.5 µg/mL

CCCOc1ccc(C(=O)NNC(=S)NC(C)=O)cc1
MIC (Staphylococcus aureus [4]): 6.25 µg/mL

CCCCCCOc1ccc(C(=O)NNC(=O)NC(C)=O)cc1
MIC (Staphylococcus aureus [4]): 100 µg/mL

CCCCCOc1ccc(C(=O)NNC(=S)NC(C)=O)cc1O
MIC (Staphylococcus aureus [4]): 25 µg/mL

CCCCCOc1ccc(C(=O)NNC(=S)NC(=O)CC)cc1
MIC (Staphylococcus aureus [4]): 1.56 µg/mL

CC(=O)NC(=S)NNC(=O)c1ccc(Oc2ccccc2)cc1
MIC (Staphylococcus aureus [4]): 3.12 µg/mL

CCCCCOc1ccc(C(=O)NNC(=S)NC(=O)CCC(=O)O)cc1
MIC (Staphylococcus aureus [4]): 50 µg/mL

CCCCCOc1ccc(C(=O)NC(=S)NNC(C)=O)cc1
MIC (Staphylococcus aureus [4]): 3.12 µg/mL

CCCCOc1ccc(C(=O)NNC(=S)NC(C)=O)cc1
MIC (Staphylococcus aureus [4]): 1.56 µg/mL

CCCCCOc1ccc(C(=O)NNC(=S)NC(C)=O)c(C)c1
MIC (Staphylococcus aureus [4]): 3.12 µg/mL

Cc1ccc(C(=O)NC(=S)NNC(=O)c2ccc(Cl)cc2)cc1C
MIC (Staphylococcus aureus [5]): 16 µg/mL (≈ 44.2 µM) | IC50 [6]: > 50000 nM

Cc1ccc(C(=O)NNC(=S)NC(=O)CC(C)C)cc1
MIC (Staphylococcus aureus [4]): 12.5 µg/mL

CCCCCOc1ccc(C(=O)NNC(=S)NC(C)=O)cc1OCCCCC
MIC (Staphylococcus aureus [4]): 6.25 µg/mL

CC(=O)O[C@H]1C(=O)[C@@]2(C)[C@H]([C@H](OC(=O)c3ccccc3)[C@]3(O)C[C@H](OC(=O)[C@H](O)[C@@H](NC(=O)c4ccccc4)c4ccccc4)C(C)=C1C3(C)C)[C@]1(OC(C)=O)CO[C@@H]1C[C@@H]2O [PACLITAXEL]
CC50 at 48 h [7]: 16 nM | CC50 at 48 h [8]: 10 nM

CCCCCCOc1ccc(-c2nnc(NC(C)=O)s2)cc1
MIC (Staphylococcus aureus [4]): > 100 µg/mL

CC(=O)NC(=S)NNC(=O)c1ccc(O)c(O)c1
MIC (Staphylococcus aureus [4]): 100 µg/mL

CCCCCCOc1ccc(-c2nnc(NC(C)=O)o2)cc1
MIC (Staphylococcus aureus [4]): > 100 µg/mL

CCCCCCCCCCCOc1ccc(C(=O)NNC(=S)NC(C)=O)cc1
MIC (Staphylococcus aureus [4]): 100 µg/mL

COCCCOc1ccc(C(=O)NNC(=S)NC(C)=O)cc1
MIC (Staphylococcus aureus [4]): > 100 µg/mL

CC(=O)NC(=S)NNC(=O)c1ccccc1O
MIC (Staphylococcus aureus [4]): 50 µg/mL

CCCCCOc1cccc(C(=O)NNC(=S)NC(C)=O)c1
MIC (Staphylococcus aureus [4]): > 100 µg/mL

CCCCCOc1ccc(C(=O)NNC(=S)NC(C)=O)nc1
MIC (Staphylococcus aureus [4]): 25 µg/mL

CC(=O)NC(=S)NNC(=O)c1ccc2ccccc2c1
MIC (Staphylococcus aureus [4]): 6.25 µg/mL

CC(=O)NC(=S)NNC(=O)c1ccc(OC2CCCCC2)cc1
MIC (Staphylococcus aureus [4]): 1.56 µg/mL

CCCCCCOc1ccc(C(=O)NNC(=S)NC(C)=O)cc1
MIC (Staphylococcus aureus [4]): 1.56 µg/mL | IC50 (DNA gyrase [9]): 1010 nM

CCC1CCC(c2ccc(C(=O)NNC(=S)NC(C)=O)cc2)CC1 (stereo not given)
MIC (Staphylococcus aureus [4]): 0.58 µM | selectivity ratio [10]: 0.05 | CC50 at 48 h [7]: 67 nM | IC50 (DNA gyrase [9]): 230 nM | selectivity ratio [11]: 0.12 | CC50 at 48 h [8]: 26 nM

CCCCCOc1ccc(C(=O)NNC(=S)NC(C)=O)c(OCCCCC)c1
MIC (Staphylococcus aureus [4]): > 100 µg/mL

CC(=O)NC(=S)NNC(=O)c1ccc(OCCCC(C)C)cc1
MIC (Staphylococcus aureus [4]): 3.12 µg/mL

CCC(=O)NC(=S)NNC(=O)c1ccccc1
MIC (Staphylococcus aureus [4]): 50 µg/mL
